The source made the active and inactive calls. The calls are words filed in the database; no cut-off is given here.
Key:
CWR22R = experiment: Cytotoxicity against human 22Rv1 cells assessed as reduction in cell viability incubated for 72 hrs by MTT assay; assay type: functional, cell-based
PC-3 = experiment: Cytotoxicity against human PC-3 cells assessed as reduction in cell viability incubated for 72 hrs by MTT assay; assay type: functional, cell-based
Androgen receptor = target: T1, Androgen receptor (Homo sapiens, UniProt P10275); experiment: Inhibition of AR transcriptional activity in human LNCaP cells harboring ARR2PB-eGFP incubated for 72 hrs by fluorescence assay; assay type: cell-based
T1 sequence (P10275 whole entry): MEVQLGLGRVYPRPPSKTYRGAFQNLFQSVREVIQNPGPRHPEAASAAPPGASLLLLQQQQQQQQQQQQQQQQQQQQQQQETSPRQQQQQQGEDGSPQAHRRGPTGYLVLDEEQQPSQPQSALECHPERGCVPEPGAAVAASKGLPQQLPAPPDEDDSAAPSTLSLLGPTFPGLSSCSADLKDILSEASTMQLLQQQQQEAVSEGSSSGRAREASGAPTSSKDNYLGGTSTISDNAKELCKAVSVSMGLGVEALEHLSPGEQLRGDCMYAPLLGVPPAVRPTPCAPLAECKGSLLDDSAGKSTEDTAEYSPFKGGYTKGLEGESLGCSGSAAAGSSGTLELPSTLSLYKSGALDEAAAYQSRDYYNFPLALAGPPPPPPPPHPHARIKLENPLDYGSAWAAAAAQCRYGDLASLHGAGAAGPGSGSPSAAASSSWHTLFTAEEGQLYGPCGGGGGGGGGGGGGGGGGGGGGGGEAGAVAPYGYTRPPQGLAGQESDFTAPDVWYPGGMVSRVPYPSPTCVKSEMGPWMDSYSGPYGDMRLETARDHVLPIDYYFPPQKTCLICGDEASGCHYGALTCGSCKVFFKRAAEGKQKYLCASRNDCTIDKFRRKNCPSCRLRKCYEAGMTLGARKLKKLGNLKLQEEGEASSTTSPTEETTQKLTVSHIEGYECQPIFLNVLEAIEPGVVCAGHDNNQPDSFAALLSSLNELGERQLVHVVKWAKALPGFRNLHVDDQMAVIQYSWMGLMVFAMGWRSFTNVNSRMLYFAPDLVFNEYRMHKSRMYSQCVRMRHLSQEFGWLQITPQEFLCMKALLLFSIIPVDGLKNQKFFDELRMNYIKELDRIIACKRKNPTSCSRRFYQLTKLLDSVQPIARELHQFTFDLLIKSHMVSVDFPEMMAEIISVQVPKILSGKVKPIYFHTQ

[1] = target: T2, Androgen receptor (Homo sapiens) (UniProt P10275); experiment: Antagonist activity at androgen receptor in human LNCaP cells assessed as reduction in DHT-induced AR protein expression at 0.1 to 10 uM after 48 hrs by Western blot analysis; assay type: cell-based; details: dose 0.1-10 µM
T2 sequence (whole entry): T1 sequence (P10275 whole entry)

[2] = target: T3, Mineralocorticoid receptor (Homo sapiens) (UniProt P08235); experiment: Agonist activity at mineralocorticoid receptor in human PC-3 cells by dual-Glo luciferase assay; assay type: cell-based
T3 sequence (whole entry): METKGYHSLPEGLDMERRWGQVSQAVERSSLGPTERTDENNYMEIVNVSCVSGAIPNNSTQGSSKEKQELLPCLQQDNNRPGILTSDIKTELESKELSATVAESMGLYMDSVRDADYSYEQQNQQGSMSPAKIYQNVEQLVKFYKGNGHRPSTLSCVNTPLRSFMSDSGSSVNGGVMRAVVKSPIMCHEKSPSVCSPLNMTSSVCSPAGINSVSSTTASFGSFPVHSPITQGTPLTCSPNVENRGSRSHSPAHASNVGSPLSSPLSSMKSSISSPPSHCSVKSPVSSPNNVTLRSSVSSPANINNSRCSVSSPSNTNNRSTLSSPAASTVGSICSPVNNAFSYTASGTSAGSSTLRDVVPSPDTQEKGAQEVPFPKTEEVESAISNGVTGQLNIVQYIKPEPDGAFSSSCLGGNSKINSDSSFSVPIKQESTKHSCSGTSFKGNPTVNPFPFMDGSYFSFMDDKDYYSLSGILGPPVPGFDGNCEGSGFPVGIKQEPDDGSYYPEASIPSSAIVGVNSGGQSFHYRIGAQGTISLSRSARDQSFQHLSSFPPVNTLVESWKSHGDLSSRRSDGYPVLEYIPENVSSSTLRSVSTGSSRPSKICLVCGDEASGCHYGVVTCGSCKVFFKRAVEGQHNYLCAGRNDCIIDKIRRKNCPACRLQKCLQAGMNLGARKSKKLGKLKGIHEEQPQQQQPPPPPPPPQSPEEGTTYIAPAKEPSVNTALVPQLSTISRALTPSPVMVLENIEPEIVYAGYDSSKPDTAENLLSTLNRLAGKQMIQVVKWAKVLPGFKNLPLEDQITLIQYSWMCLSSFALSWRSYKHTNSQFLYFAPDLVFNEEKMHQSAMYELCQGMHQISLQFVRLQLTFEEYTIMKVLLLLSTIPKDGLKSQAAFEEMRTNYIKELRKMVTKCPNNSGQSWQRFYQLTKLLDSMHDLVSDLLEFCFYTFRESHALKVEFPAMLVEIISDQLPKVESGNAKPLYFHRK

A549 = experiment: Cytotoxicity against human A549 cells assessed as reduction in cell viability at 50 uM incubated for 72 hrs by MTT assay; assay type: functional, cell-based
Glucocorticoid receptor = target: T4, Glucocorticoid receptor (Homo sapiens, UniProt P04150); experiment: Antagonist activity at glucocorticoid receptor in human HeLa cells assessed as reduction in dexamethasone-induced luciferase activity by dual-Glo luciferase assay; assay type: cell-based
T4 sequence (P04150 whole entry): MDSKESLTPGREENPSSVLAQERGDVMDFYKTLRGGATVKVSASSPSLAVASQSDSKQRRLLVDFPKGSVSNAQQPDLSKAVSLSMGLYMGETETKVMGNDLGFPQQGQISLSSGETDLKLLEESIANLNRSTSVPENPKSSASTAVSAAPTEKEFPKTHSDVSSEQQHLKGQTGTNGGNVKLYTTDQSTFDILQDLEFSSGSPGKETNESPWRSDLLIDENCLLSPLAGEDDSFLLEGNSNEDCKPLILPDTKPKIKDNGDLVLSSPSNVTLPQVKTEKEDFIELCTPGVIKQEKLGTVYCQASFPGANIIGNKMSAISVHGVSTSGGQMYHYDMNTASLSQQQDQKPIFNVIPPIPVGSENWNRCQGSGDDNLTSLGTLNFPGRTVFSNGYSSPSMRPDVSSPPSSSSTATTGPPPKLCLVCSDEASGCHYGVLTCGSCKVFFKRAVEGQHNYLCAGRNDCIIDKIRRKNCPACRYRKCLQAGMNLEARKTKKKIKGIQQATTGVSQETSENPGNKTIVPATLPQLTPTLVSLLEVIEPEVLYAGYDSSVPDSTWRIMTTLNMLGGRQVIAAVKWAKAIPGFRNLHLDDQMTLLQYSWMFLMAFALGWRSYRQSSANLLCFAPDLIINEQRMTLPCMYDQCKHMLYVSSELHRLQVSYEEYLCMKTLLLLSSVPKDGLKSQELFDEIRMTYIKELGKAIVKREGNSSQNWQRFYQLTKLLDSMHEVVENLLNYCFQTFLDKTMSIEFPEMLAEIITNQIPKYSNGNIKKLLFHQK

HepG2 = experiment: Cytotoxicity against human HepG2 cells assessed as reduction in cell viability at low concentration incubated for 72 hrs by MTT assay; assay type: functional, cell-based

## O=c1cc(C(F)(F)F)c2ccc(OCc3ccc(Br)cc3)cc2o1
CWR22R
  Activity: Active
PC-3
  Activity: Active
Androgen receptor
  IC50: 170 nM
[1]
  Activity: inactive
[2]
  Activity: inactive
A549
  Activity: Active
Glucocorticoid receptor
  IC50: > 10000 nM
HepG2
  Activity: inactive

Source: ChEMBL document CHEMBL5055679, “Discovery of a Novel Androgen Receptor Antagonist Manifesting Evidence to Disrupt the Dimerization of the Ligand-Binding Domain via Attenuating the Hydrogen-Bonding Network Between the Two Monomers” (J Med Chem, 2021)
